These results are taken from ChEMBL document CHEMBL3046646, “Regioselective synthesis and cannabinoid receptor binding affinity of N-alkylated 4,5-diaryl-1,2,3-triazoles” (Med Chem Res, 2012).

Common to all, as to type: tissue-based
For test [1], the target named is Cannabinoid receptor 1 (Rattus norvegicus, UniProt P20272). In words: Displacement of [3H][…] from CB1 receptor in Rattus norvegicus (rat) cerebellum homogenate after 2 hr by scintillation counting. Background: Displacement assays read how much labelled ligand stays bound in the presence of the test substance.
Test [2] concerns the target Cannabinoid receptor 1 (Rattus norvegicus) (UniProt P20272). In words: Displacement of [3H][…] from CB1 receptor in Rattus norvegicus (rat) cerebellum homogenate at 1 uM after 2 hr by scintillation counting.
Test [3] has the same target. Kind of test: Displacement of [3H][…] from CB1 receptor in Rattus norvegicus (rat) cerebellum homogenate at 100 uM after 2 hr by scintillation counting.

Usually Ki stands for the equilibrium dissociation constant of an inhibitor or competing ligand from its target. Usually inhibition stands for the relative decrease from the control value, in per cent. A higher inhibition goes with a strong effect.

Sequence of Cannabinoid receptor 1 (Rattus norvegicus) (P20272 whole entry): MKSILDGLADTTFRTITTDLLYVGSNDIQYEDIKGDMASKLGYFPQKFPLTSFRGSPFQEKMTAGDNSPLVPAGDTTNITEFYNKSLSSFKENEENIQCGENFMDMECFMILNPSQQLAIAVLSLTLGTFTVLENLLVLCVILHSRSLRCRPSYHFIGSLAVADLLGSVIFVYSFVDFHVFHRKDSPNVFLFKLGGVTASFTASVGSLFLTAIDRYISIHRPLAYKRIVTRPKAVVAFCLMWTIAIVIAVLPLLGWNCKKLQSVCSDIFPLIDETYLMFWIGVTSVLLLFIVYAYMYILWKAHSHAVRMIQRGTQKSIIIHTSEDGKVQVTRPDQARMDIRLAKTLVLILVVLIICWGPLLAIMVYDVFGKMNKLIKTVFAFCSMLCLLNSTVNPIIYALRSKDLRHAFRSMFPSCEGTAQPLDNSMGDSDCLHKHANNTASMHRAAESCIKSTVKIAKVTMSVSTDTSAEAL
Sequence of Cannabinoid receptor 1 (P20272 whole entry): as above

As to `CCC/C=C\Cn1nnc(-c2ccc(Cl)cc2Cl)c1-c1ccc(Cl)cc1`, in test [1], the Ki entry was “ND(Insoluble)”.
`CCCn1nnc(-c2ccc(Cl)cc2Cl)c1-c1ccc(Cl)cc1`: in test [1] (read-out: Ki), the Ki is 152 nM.
Still for that read-out and setting: in the case of `OCCn1nnc(-c2ccc(Cl)cc2Cl)c1-c1ccc(Cl)cc1` it was 163 nM; in that of `Clc1ccc(-c2nn(Cc3ccccc3)nc2-c2ccc(Cl)cc2Cl)cc1`, 230 nM.
Turning to `COC(=O)Cn1nc(-c2ccc(Cl)cc2)c(-c2ccc(Cl)cc2Cl)n1`, the inhibition constant Ki in test [1] (read-out: Ki) amounted to 855 nM.
Still for that read-out and setting: the value for `COC(=O)Cn1nnc(-c2ccc(Cl)cc2Cl)c1-c1ccc(Cl)cc1` was 247 nM; that for `ClCCn1nc(-c2ccc(Cl)cc2)c(-c2ccc(Cl)cc2Cl)n1` was 80 nM.
In the case of `CCCCCCn1nnc(-c2ccc(Cl)cc2Cl)c1-c1ccc(Cl)cc1`, the Ki result in test [1] was “ND(Insoluble)”.
The compound `CCOC(=O)CCn1nc(-c2ccc(Cl)cc2)c(-c2ccc(Cl)cc2Cl)n1` displayed an inhibition in test [2] of 22%.
`Clc1ccc(-c2c(-c3ccc(Cl)cc3Cl)nnn2Cc2ccccc2)cc1`: the Ki in test [1] (read-out: Ki) worked out at 187 nM.
Still for that read-out and setting: in the case of `COC(=O)CCn1nc(-c2ccc(Cl)cc2)c(-c2ccc(Cl)cc2Cl)n1` it was 2360 nM.
The compound `N#CCCn1nc(-c2ccc(Cl)cc2)c(-c2ccc(Cl)cc2Cl)n1` registered an inhibition in test [2] of 26%.
For `FCCn1nc(-c2ccc(Cl)cc2)c(-c2ccc(Cl)cc2Cl)n1`, in test [1] (read-out: Ki), the Ki turned out to be 79 nM.
For `C=CCn1nnc(-c2ccc(Cl)cc2Cl)c1-c1ccc(Cl)cc1`, the Ki entry in test [1] is on record as “ND(Insoluble)”.
Regarding `N#CCn1nc(-c2ccc(Cl)cc2)c(-c2ccc(Cl)cc2Cl)n1`, in test [1] (read-out: Ki), the inhibitory constant (Ki) is 232 nM.
As for `CCCCOC(=O)n1nc(-c2ccc(Cl)cc2)c(-c2ccc(Cl)cc2Cl)n1`, the inhibition in test [3] was 30%.
For the compound `FCCn1nnc(-c2ccc(Cl)cc2Cl)c1-c1ccc(Cl)cc1`, the Ki in test [1] (read-out: Ki) stood at 421 nM.
Same read-out and setting: in the case of `OCCn1nc(-c2ccc(Cl)cc2)c(-c2ccc(Cl)cc2Cl)n1` it was 660 nM.
